Results as given in patent publication US5976523A, “Method for healing compromised tissues using pyrimidine derivatives” (Mitsui Pharmaceuticals, Inc., priority 1995, dated 1999).
Where a name gives a salt, the structure may show the parent alone.

Assays:
TMK1 cells [1] = assay: Morphological change of TMK1 cells; type: cell-based
TMK1 cells [2] = assay: TMK1 cell migration in Boyden's chamber; type: cell-based; settings: 4 hours
Experimental: TMK1 cells, low-differentiating epithelial cells, were treated with trypsin. […] The culture medium in the lower well was then subjected to fixing and staining, and cells which had migrated therein were counted. Experiments were conducted concurrently in three chambers.
Each value will be presented as a mean ±S.D. and with respect to each compound, numbers of cells will be presented in the order of a) control, b) each pyrimidine compound (whose concentration will be specifically indicated), c) 10 ng/ml of EGF, and d) a mixed solution of each pyrimidine compound + EGF.

[3] = tested on: primary cultured gastric mucosal cells; assay: Wound repair model with primary cultured gastric mucosal cells; type: cell-based, rabbit
Experimental: Primary cultured gastric mucosal cells were prepared by mechanically peeling and mincing the gastric mucosa of a rabbit having a body weight of 2 kg and then digesting the minced gastric mucosa with 0.07% collagenase. The primary cultured gastric mucosal cells were cultured at a cell concentration of 3.3×10^5 cells/ml in F-12 culture medium containing 10% fetal calf serum added therein. For this cultivation, a culture dish (60 mm in diameter) coated with collagen type I was used. […] Using an anti-BrdU antibody, the cells in the S phase were stained to identify proliferated cells.
Their effects on the process of restoration were measured under the above-described parameters. […] In each of the control group and the medicament-added groups, the area of the wounded region was measured at the 0th hour, 12th hour, 24th hour, 36th hour and 48th hour. The measurement results will be given in this order.
The control group and the groups added with the medicament at the respective concentrations were each subjected to the experiment with n=5. The results will each be presented as a (mean±S. D.) mm2. A test of significance was conducted relative to the control group. * stands for p<0.05, ** for p<0.01, *** for p<0.001. A further test of significance was conducted relative to a group added with 10 ng/ml of EGF. + stands for p<0.05, and ++ for <0.01.

[4] = tested on: CAMs (chorioallantoic membranes); assay: Angiogenesis on chorioallantoic membranes (CAM); type: in vivo, chick; settings: for number of new blood vessels (M±SE): day 3
Experimental: For a bFGF, various assay systems assessing the angiogenesis activity of the bFGF as an index are usable. The shells of chick embryos are fenestrated centrally corresponding to the air spaces thereof, whereby the chorioallantoic membranes (CAMS) are exposed. Solutions of the bFGF and a test medicament at various concentrations were applied onto the respective CAMs. Incubation was continued. Several days later, the degrees of angiogenesis were investigated under a microscope. This method is preferably employed. […] The test medicament is therefore found to be useful for the reduction of a time required for the construction of a skin-equivalent tissue. […] Also with respect to a VEGF, its angiogenesis activity can be assayed in a similar system.
The shells of eggs on the 10th day after fertilization were fenestrated centrally corresponding to air spaces thereof, whereby CAMs (chorioallantoic membranes) were exposed. A nylon film in the form of a square of 3 mm in side was placed over the CAM, and onto the nylon film, a solution of bFGF as a growth and/or differentiation factor or the pyrimidine compound according to the present invention was dropped in an amount of 8 ul. Incubation was continued at 38° C. On the 72nd hour, the eggs were moved to a cool place controlled at 4° C. After the eggs were left over for 2 to 3 hours there, the degree of angiogenesis in each egg was investigated under a microscope. The angiogenesis was determined based on the number of radial blood vessels equal to or larger than 0.1 mm in diameter. Onto the nylon disk placed over the CAMS, 1, 10, and 100 ng/ml solutions of recombinant human bFGF (product of Genzyme Corporation) in physiological saline and 0.01 to 1 mM solutions of the individual pyrimidine compound in physiological saline were applied singly or in combination.

bone defect (tibia) = assay: Rat bone defect model, formation of hyaline cartilage matrix; type: in vivo; settings: bFGF (0.5 μg) + compound (0.5 mg) pellet, 7th day, vs bFGF pellet
Description: Action of 2-piperazino-6-methyl-5-oxo-5,6-dihydro(7H)pyrro[3,4-d]pyrimidinemaleate on in vivo chondrogenesis was studied in detail by preparing a rat bone defect model which permits observation of bFGF-derived formation of a hyaline cartilage matrix. Embedment of a bFGF-containing pellet in a bone defect of the model permits easy observation of formation of a hyaline cartilage matrix under the periosteum around the bone defect. Rats were divided into three groups. The rats in one of the groups were each embedded in a formed bone defect (diameter: 2.6 mm) thereof with a hydroxyethyl methacrylate pellet (10 mg) which contained bFGF (0.5 μg). The rats in another one of the groups were each embedded likewise with a hydroxyethyl methacrylate pellet (10 mg) which contained bFGF (0.5 μg) and the invention compound (0.5 mg). The rats in the remaining group, that is, a control group were each embedded similarly with a pellet which contained physiological saline. After the rats in all the three groups were sacrificed seven days later, action of bFGF or the invention compound on the process of chondrogenesis on enchondral ossification around the bone defect was investigated. On the 7th day after the formation of the bone defect, the tibia of each rat was histologically examined around the bone defect.

CN1Cc2nc(N3CCNCC3)ncc2C1=O [Compound B, 2-piperazino-6-methyl-5-oxo-5,6-dihydro(7H)pyrro[3,4-d]pyrimidine maleate]
time of sprouting of the process of the cells similar to neurites (TMK1 cells [1]; EGF and compound): 8 h | morphological changes (TMK1 cells [1]; EGF and compound, compared with EGF alone): still more marked intensive morphological changes | network formation of cell processes (TMK1 cells [1]; EGF and compound, day 1): forming a dense network on day 1 | morphological changes (TMK1 cells [1]; singly added, 1 mM, fifth hour to day 1): only slight morphological changes | morphological changes after removal of the test agent (TMK1 cells [1]; test agent removed): these morphological changes disappeared | numbers of cells counted (migrated), mean ±S.D. (TMK1 cells [2]; compound 1 mM + EGF 10 ng/ml): 111.2±8.0 | numbers of cells counted (migrated), mean ±S.D. (TMK1 cells [2]; compound alone, 1 mM): 7.4±3.0 | area of the wounded region (mean±S.D.) ([3]; EGF + 0.01 mM compound, 0th hour): 2.06±0.04 mm2 | area of the wounded region (mean±S.D.) ([3]; EGF + 0.01 mM compound, 12th hour): 0.92±0.05 mm2 | area of the wounded region (mean±S.D.) ([3]; EGF + 0.01 mM compound, 24th hour): 0.38±0.05 mm2 | area of the wounded region (mean±S.D.) ([3]; EGF + 0.01 mM compound, 36th hour): 0.07±0.04 mm2 | area of the wounded region (mean±S.D.) ([3]; EGF + 0.01 mM compound, 48th hour): 0 mm2 | area of the wounded region (mean±S.D.) ([3]; EGF + 0.1 mM compound, 0th hour): 2.06±0.04 mm2 | area of the wounded region (mean±S.D.) ([3]; EGF + 0.1 mM compound, 12th hour): 0.83±0.05 mm2 | area of the wounded region (mean±S.D.) ([3]; EGF + 0.1 mM compound, 24th hour): 0.29±0.07 mm2 | area of the wounded region (mean±S.D.) ([3]; EGF + 0.1 mM compound, 36th hour): 0 mm2 | area of the wounded region (mean±S.D.) ([3]; EGF + 0.1 mM compound, 48th hour): 0 mm2 | effect on EGF-induced acceleration of cell restoration ([3]; compound 0.01-0.1 mM with EGF): further promoted the EGF-induced acceleration of cell restoration in a concentration-dependent fashion | repairing effects ([3]; compound alone 0.01-0.1 mM, absence of EGF): did not show repairing effects in the absence of EGF | number of new vessels (M±SE) ([4]; bFGF (concentration not stated) + 0.01 mM compound): 8.1±1.1 | number of new vessels (M±SE) ([4]; bFGF (concentration not stated) + 0.1 mM compound): 8.5±0.8 | number of new vessels (M±SE) ([4]; bFGF (concentration not stated) + 1 mM compound): 9.3±0.5 | angiogenesis ability of bFGF ([4]; bFGF + compound): synergistically enhanced | number of new blood vessels (M±SE) ([4]; compound alone 0.01 mM): 3.5±0.9 | number of new blood vessels (M±SE) ([4]; compound alone 0.1 mM): 3.4±0.5 | number of new blood vessels (M±SE) ([4]; compound alone 1 mM): 4.4±0.7 | formation of a hyaline cartilage matrix (bone defect (tibia)): in an amount apparently larger than that formed in the group embedded with the bFGF-containing pellet
